Measurements as given in ChEMBL document CHEMBL3885861, “Open TG-GATES”.

Species: Rattus norvegicus
Assay: Open TG-GATES - Regimen: Single
Type: toxicity, organism-based, Sprague-Dawley
Design: regimen Single, gender Male, age 6 weeks
Details: in vivo, po, route gavage; for APTT / Bas / Eos / Fbg / Hb / Ht / Lym / MCH / MCHC / MCV / Mono / Neu / PT / Plat / RBC / Ret / WBC: tissue Blood; for KIDNEY_L / KIDNEY_R / KIDNEY_TOTAL: tissue Kidney; for LIVER: tissue Liver; for A/G / ALP / ALT / AST / BUN / CRE / Ca / Cl / DBIL / GLC / IP / K / LDH / Na / PL / RALB / TBIL / TC / TG / TP / gamma-GTP: tissue Plasma
[1] = 300 mg/kg, 3 h, dose level Middle
[2] = 300 mg/kg, 6 h, dose level Middle
[3] = 300 mg/kg, 9 h, dose level Middle
[4] = 300 mg/kg, 24 h, dose level Middle
[5] = 1000 mg/kg, 3 h, dose level High
[6] = 1000 mg/kg, 6 h, dose level High
[7] = 1000 mg/kg, 9 h, dose level High
[8] = 1000 mg/kg, 24 h, dose level High

## CC[C@@H](CO)NCCN[C@@H](CC)CO [ETHAMBUTOL]
[1]
  TERMINAL_BW: 232.2 g
  APTT: 22.9 s
  Bas: 0%
  Eos: 0.6%
  Fbg: 301.8 mg/dL
  Hb: 13.7 g/dL
  Ht: 40.8%
  Lym: 78%
  MCH: 22 pg
  MCHC: 33.6%
  MCV: 65.5 fL
  Mono: 2.8%
  Neu: 18.2%
  PT: 15.5 s
  Plat: 120.7 x10_4/uL
  RBC: 623.8 x10_4/ul
  Ret: 8.5%
  WBC: 63.4 x10_2/uL
  KIDNEY_L: 1 g
  KIDNEY_R: 1 g
  KIDNEY_TOTAL: 2 g
  LIVER: 10.9 g
  A/G: 1.3
  ALP: 1703.4 IU/L
  ALT: 42.6 IU/L
  AST: 68.2 IU/L
  BUN: 12.2 mg/dL
  CRE: 0.1 mg/dL
  Ca: 10.3 mg/dL
  Cl: 106.8 meq/L
  DBIL: 0.002 mg/dL
  GLC: 190 mg/dL
  IP: 8.9 mg/dL
  K: 3.8 meq/L
  LDH: 187.2 IU/L
  Na: 141 meq/L
  PL: 137.4 mg/dL
  RALB: 3 g/dL
  TBIL: 0.02 mg/dL
  TC: 78.2 mg/dL
  TG: 54.2 mg/dL
  TP: 5.4 g/dL
  gamma-GTP: 1.6 IU/L
[2]
  TERMINAL_BW: 224.6 g
  APTT: 22.5 s
  Bas: 0%
  Eos: 1.2%
  Fbg: 321.2 mg/dL
  Hb: 14 g/dL
  Ht: 41%
  Lym: 75%
  MCH: 21.5 pg
  MCHC: 34.1%
  MCV: 63.1 fL
  Mono: 2.2%
  Neu: 20.6%
  PT: 15.6 s
  Plat: 124.9 x10_4/uL
  RBC: 649.8 x10_4/ul
  Ret: 7.7%
  WBC: 89.1 x10_2/uL
  KIDNEY_L: 1 g
  KIDNEY_R: 1 g
  KIDNEY_TOTAL: 2 g
  LIVER: 9.9 g
  A/G: 1.1
  ALP: 1416.2 IU/L
  ALT: 39.4 IU/L
  AST: 68.6 IU/L
  BUN: 10 mg/dL
  CRE: 0.1 mg/dL
  Ca: 10.2 mg/dL
  Cl: 106 meq/L
  DBIL: 0.002 mg/dL
  GLC: 183.6 mg/dL
  IP: 9.1 mg/dL
  K: 4.1 meq/L
  LDH: 169 IU/L
  Na: 141 meq/L
  PL: 139.8 mg/dL
  RALB: 2.9 g/dL
  TBIL: 0.022 mg/dL
  TC: 74.6 mg/dL
  TG: 76.6 mg/dL
  TP: 5.5 g/dL
  gamma-GTP: 1.8 IU/L
[3]
  TERMINAL_BW: 217.6 g
  APTT: 23 s
  Bas: 0%
  Eos: 0.6%
  Fbg: 334 mg/dL
  Hb: 13.6 g/dL
  Ht: 40.2%
  Lym: 74.4%
  MCH: 21.4 pg
  MCHC: 33.7%
  MCV: 63.5 fL
  Mono: 1.8%
  Neu: 22.2%
  PT: 16.1 s
  Plat: 122 x10_4/uL
  RBC: 633.4 x10_4/ul
  Ret: 7.8%
  WBC: 74.5 x10_2/uL
  KIDNEY_L: 1 g
  KIDNEY_R: 1 g
  KIDNEY_TOTAL: 2.1 g
  LIVER: 9.7 g
  A/G: 1.2
  ALP: 1255.8 IU/L
  ALT: 37 IU/L
  AST: 68.2 IU/L
  BUN: 9.6 mg/dL
  CRE: 0.1 mg/dL
  Ca: 10.4 mg/dL
  Cl: 107 meq/L
  DBIL: 0 mg/dL
  GLC: 176.8 mg/dL
  IP: 9.4 mg/dL
  K: 3.9 meq/L
  LDH: 139.4 IU/L
  Na: 141.6 meq/L
  PL: 136.8 mg/dL
  RALB: 3 g/dL
  TBIL: 0.036 mg/dL
  TC: 78.6 mg/dL
  TG: 53.4 mg/dL
  TP: 5.6 g/dL
  gamma-GTP: 1.8 IU/L
[4]
  TERMINAL_BW: 235.9 g
  APTT: 22 s
  Bas: 0%
  Eos: 1%
  Fbg: 339.2 mg/dL
  Hb: 13.7 g/dL
  Ht: 39.7%
  Lym: 81.6%
  MCH: 22 pg
  MCHC: 34.6%
  MCV: 63.5 fL
  Mono: 3%
  Neu: 13.2%
  PT: 15.9 s
  Plat: 117.6 x10_4/uL
  RBC: 625.8 x10_4/ul
  Ret: 7.3%
  WBC: 107.5 x10_2/uL
  KIDNEY_L: 1.1 g
  KIDNEY_R: 1.1 g
  KIDNEY_TOTAL: 2.2 g
  LIVER: 12.3 g
  A/G: 1.2
  ALP: 1520.4 IU/L
  ALT: 46 IU/L
  AST: 69.4 IU/L
  BUN: 14.6 mg/dL
  CRE: 0.1 mg/dL
  Ca: 10.5 mg/dL
  Cl: 105.2 meq/L
  DBIL: 0 mg/dL
  GLC: 187.4 mg/dL
  IP: 8.5 mg/dL
  K: 3.9 meq/L
  LDH: 145.8 IU/L
  Na: 141 meq/L
  PL: 155.6 mg/dL
  RALB: 3.1 g/dL
  TBIL: 0.014 mg/dL
  TC: 82.4 mg/dL
  TG: 89.4 mg/dL
  TP: 5.7 g/dL
  gamma-GTP: 2 IU/L
[5]
  TERMINAL_BW: 224.6 g
  APTT: 23.9 s
  Bas: 0%
  Eos: 0.8%
  Fbg: 301.6 mg/dL
  Hb: 13.7 g/dL
  Ht: 40.3%
  Lym: 81.2%
  MCH: 21.3 pg
  MCHC: 33.9%
  MCV: 62.7 fL
  Mono: 2.2%
  Neu: 15.4%
  PT: 15.7 s
  Plat: 126.2 x10_4/uL
  RBC: 643.4 x10_4/ul
  Ret: 7.5%
  WBC: 67.7 x10_2/uL
  KIDNEY_L: 1 g
  KIDNEY_R: 1 g
  KIDNEY_TOTAL: 2.1 g
  LIVER: 9.9 g
  A/G: 1.2
  ALP: 1529.4 IU/L
  ALT: 41.8 IU/L
  AST: 74.8 IU/L
  BUN: 10.4 mg/dL
  CRE: 0.1 mg/dL
  Ca: 10.1 mg/dL
  Cl: 106.8 meq/L
  DBIL: 0 mg/dL
  GLC: 173.8 mg/dL
  IP: 8.7 mg/dL
  K: 3.9 meq/L
  LDH: 175.6 IU/L
  Na: 141.6 meq/L
  PL: 139 mg/dL
  RALB: 3 g/dL
  TBIL: 0.018 mg/dL
  TC: 83.8 mg/dL
  TG: 35.6 mg/dL
  TP: 5.4 g/dL
  gamma-GTP: 1.8 IU/L
[6]
  TERMINAL_BW: 222.4 g
  APTT: 22.3 s
  Bas: 0%
  Eos: 1%
  Fbg: 308.6 mg/dL
  Hb: 13.7 g/dL
  Ht: 40.2%
  Lym: 77.4%
  MCH: 21.1 pg
  MCHC: 34.1%
  MCV: 61.9 fL
  Mono: 2.8%
  Neu: 18%
  PT: 15.9 s
  Plat: 123.5 x10_4/uL
  RBC: 650.6 x10_4/ul
  Ret: 7.1%
  WBC: 70.3 x10_2/uL
  KIDNEY_L: 1 g
  KIDNEY_R: 1 g
  KIDNEY_TOTAL: 2 g
  LIVER: 9.5 g
  A/G: 1.2
  ALP: 1436.4 IU/L
  ALT: 35.6 IU/L
  AST: 67.4 IU/L
  BUN: 9.8 mg/dL
  CRE: 0.1 mg/dL
  Ca: 10 mg/dL
  Cl: 108 meq/L
  DBIL: 0.002 mg/dL
  GLC: 186.4 mg/dL
  IP: 9.4 mg/dL
  K: 4.1 meq/L
  LDH: 176.4 IU/L
  Na: 141.4 meq/L
  PL: 134 mg/dL
  RALB: 3 g/dL
  TBIL: 0.03 mg/dL
  TC: 75.4 mg/dL
  TG: 43.2 mg/dL
  TP: 5.5 g/dL
  gamma-GTP: 1.4 IU/L
[7]
  TERMINAL_BW: 217 g
  APTT: 22.3 s
  Bas: 0%
  Eos: 0.2%
  Fbg: 312 mg/dL
  Hb: 13.9 g/dL
  Ht: 40.3%
  Lym: 79.2%
  MCH: 22 pg
  MCHC: 34.4%
  MCV: 64.1 fL
  Mono: 1.4%
  Neu: 17.8%
  PT: 16.3 s
  Plat: 116.9 x10_4/uL
  RBC: 630 x10_4/ul
  Ret: 7.6%
  WBC: 68.6 x10_2/uL
  KIDNEY_L: 1 g
  KIDNEY_R: 1 g
  KIDNEY_TOTAL: 1.9 g
  LIVER: 8.7 g
  A/G: 1.1
  ALP: 1464.4 IU/L
  ALT: 35.8 IU/L
  AST: 68.2 IU/L
  BUN: 11.4 mg/dL
  CRE: 0.1 mg/dL
  Ca: 9.9 mg/dL
  Cl: 108.2 meq/L
  DBIL: 0.002 mg/dL
  GLC: 177.8 mg/dL
  IP: 8.8 mg/dL
  K: 3.9 meq/L
  LDH: 143 IU/L
  Na: 140 meq/L
  PL: 121 mg/dL
  RALB: 3 g/dL
  TBIL: 0.022 mg/dL
  TC: 63.8 mg/dL
  TG: 44.6 mg/dL
  TP: 5.6 g/dL
  gamma-GTP: 1.6 IU/L
[8]
  TERMINAL_BW: 227.8 g
  APTT: 22.5 s
  Bas: 0%
  Eos: 1%
  Fbg: 306.4 mg/dL
  Hb: 13.4 g/dL
  Ht: 39.2%
  Lym: 76%
  MCH: 21.5 pg
  MCHC: 34.3%
  MCV: 62.9 fL
  Mono: 3%
  Neu: 18.6%
  PT: 16.7 s
  Plat: 118 x10_4/uL
  RBC: 623.4 x10_4/ul
  Ret: 6.9%
  WBC: 94.9 x10_2/uL
  KIDNEY_L: 1 g
  KIDNEY_R: 1.1 g
  KIDNEY_TOTAL: 2.1 g
  LIVER: 10.5 g
  A/G: 1.2
  ALP: 1508.4 IU/L
  ALT: 46.8 IU/L
  AST: 74 IU/L
  BUN: 13.4 mg/dL
  CRE: 0.1 mg/dL
  Ca: 10.5 mg/dL
  Cl: 105 meq/L
  DBIL: 0.002 mg/dL
  GLC: 183.8 mg/dL
  IP: 8.3 mg/dL
  K: 3.9 meq/L
  LDH: 158 IU/L
  Na: 139.4 meq/L
  PL: 135.4 mg/dL
  RALB: 3 g/dL
  TBIL: 0.022 mg/dL
  TC: 74.6 mg/dL
  TG: 53.2 mg/dL
  TP: 5.5 g/dL
  gamma-GTP: 2 IU/L
